The record followed here is PMC6167350, “Small-molecule AgrA inhibitors F12 and F19 act as antivirulence agents against Gram-positive pathogens” (Scientific Reports, 2018).

Assay [1] concerns the target T1, AgrA (C-terminal DNA-binding domain, AgrA_C) (Staphylococcus aureus, UniProt P0A0I7, C199S).
T1 sequence (P0A0I7 143-238 C199S): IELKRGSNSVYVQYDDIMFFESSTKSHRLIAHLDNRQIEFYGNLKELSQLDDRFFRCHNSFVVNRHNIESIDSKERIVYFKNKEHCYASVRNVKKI
The experiment in a line: microscale thermophoresis (Alexa Fluor 647-labeled protein).

Assay [2] concerns the target AgrA (C-terminal DNA-binding domain, AgrA_C) (Staphylococcus epidermidis, UniProt Q8CNM5). Description: microscale thermophoresis; also EMSA (F19 blocks P3 DNA binding). Background: MST reads how a fluorescent partner responds to local heating, with and without ligand.

The Kd is the equilibrium constant for the complex coming apart. The compound `CCCCCCc1cc(C(=O)COc2ccc(F)cc2F)c(O)cc1O` [F12] registered a Kd in assay [1] of 4500 ± 400 nM.
On to `CCCCCCc1cc(C(=O)COc2ccc(C(C)C)cc2)c(O)cc1O` [F19], for which the dissociation constant (Kd) was 2900 ± 400 nM in assay [1] and 2700 ± 700 nM in assay [2].
